Laboratory results: patent US20090227619A1, “Harmine derivatives, intermediates used in their preparations, preparation processes and use therefo” (priority 2003, published 2009)
Values joined by “and” are separate entries in the source; they are usually repeats but may differ in a detail not shown here. Equal entries are not always repeated.

Key:
[1] = test system: Hela; test: In vitro cytotoxicity, IC50 by MTT method, Hela; type: cell-based; conditions: Homo sapiens; Hela cell strain; read-out: IC50 Hela
Summary of the method: (§1)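 Cells in RPMI1640 with 10% FBS at 37° C, 5% CO2 were seeded at 10^5/ml and exposed to a compound concentration gradient for 48 h, at least three replicates, solvent controls.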

[2] = test system: Bel-7402; test: In vitro cytotoxicity, IC50 by MTT method, Bel-7402; type: cell-based; conditions: Homo sapiens, Bel-7402; Bel7402 cell strain; read-out: IC50 Bel7402
Summary of the method: as §1

[3] = test system: Lovo; test: In vitro cytotoxicity, IC50 by MTT method, Lovo; type: cell-based; conditions: Homo sapiens; Lovo cell strain; read-out: IC50 Lovo
Summary of the method: as §1

[4] = test system: PLA-801; test: In vitro cytotoxicity, IC50 by MTT method, PLA-801; type: cell-based; conditions: PLA-801 cell strain; read-out: IC50 PLA-801
Summary of the method: as §1

[5] = test system: NIH3T3; test: In vitro cytotoxicity, IC50 by MTT method, NIH3T3; type: cell-based; conditions: Mus musculus; NIH3T3 cell strain; read-out: IC50 NIH3T3
Summary of the method: as §1

[6] = test system: BGC-823; test: In vitro cytotoxicity, IC50 by MTT method, BGC-823; type: cell-based; conditions: Homo sapiens, BGC-823; BGC823 cell strain; read-out: IC50 BGC823
Summary of the method: as §1

[7] = test system: HepG2; test: In vitro cytotoxicity, IC50 by MTT method, HepG2; type: cell-based, human; conditions: Homo sapiens; HepG2 cell strain; read-out: IC50 HepG2
Summary of the method: as §1

Row | SMILES | IC50 [1] [µM] | IC50 [2] [µM] | IC50 [3] [µM] | IC50 [4] [µM] | IC50 [5] [µM] | melting point | IC50 [6] [µM] | IC50 [7] [µM]
1 | CCOC(=O)c1cc2c3ccccc3n(C)c2cn1 [Compound 30, ethyl 9-methyl-β-carboline-3-carboxylate] | 180 | 140 | 100 | 120 | 100 | 139 to 140 °C | 150 | 150
2 | CCCCn1c2ccccc2c2cc(C(=O)OCC)ncc21 [Compound 32, ethyl 9-butyl-β-carboline-3-carboxylate] | 490 | 780 | 170 | 70 | 60 | 76 to 77 °C | 760 | 480
3 | Cn1c2ccccc2c2cc(C(=O)O)ncc21 [Compound 34, 9-methyl-β-carboline-3-carboxylic acid] | 90 | 330 | 90 | 270 | 130 | 267 to 269 °C | 130 | 150
4 | CCn1c2ccccc2c2cc(C(=O)O)ncc21 [Compound 35, 9-ethyl-β-carboline-3-carboxylic acid] | 180 | 230 | 60 | 210 | 140 | 201 to 202 °C | 160 | 180
5 | CCCCOC(=O)c1cc2c3ccccc3n(C)c2cn1 [Compound 38, butyl 9-methyl-β-carboline-3-carboxylate] | > 3000 | > 3000 | 2520 | > 3000 | > 3000 | 235 to 238 °C | > 3000 | 1610
6 | CCCCOC(=O)c1cc2c3ccccc3n(CCCC)c2cn1 [Compound 40, butyl 9-butyl-β-carboline-3-carboxylate] | 950 | 1080 | 40 | 2120 | 50 | 94 to 95 °C | 70 | 1080
7 | CCCCOC(=O)c1cc2c3ccccc3n(Cc3ccccc3)c2cn1 [Compound 41, butyl 9-benzyl-β-carboline-3-carboxylate] | > 3000 | > 3000 | 1080 | 990 | > 3000 | 105 to 106 °C and 104 to 105 °C | > 3000 | > 3000
8 | O=C(OCc1ccccc1)c1cc2c3ccccc3n(Cc3ccccc3)c2cn1 [Compound 44, benzyl 9-benzyl-β-carboline-3-carboxylate] | > 3000 | > 3000 | > 3000 | > 3000 | > 3000 | 169 to 170 °C | > 3000 | > 3000
9 | CCOC(=O)c1cc2c3ccccc3n(CCCc3ccccc3)c2cn1 [Compound 45, ethyl 9-phenylpropyl-β-carboline-3-carboxylate] | > 3000 | 387 | > 3000 | > 3000 | > 3000 | 140 to 142 °C | > 3000 | > 3000
10 | CCn1c2ccccc2c2cc(NC(=O)OC)ncc21 [Compound 53, 9-ethyl-3-[(methoxycarbonyl)amino]-β-carboline] | > 3000 | > 3000 | > 3000 | > 3000 | > 3000 | 213 to 214 °C | > 3000 | > 3000
11 | CCOC(=O)Nc1cc2c3ccccc3n(CC)c2cn1 [Compound 54, 3-[(ethoxycarbonyl)amino]-9-ethyl-β-carboline] | > 3000 | 1680 | > 3000 | > 3000 | > 3000 | 217 to 218 °C | > 3000 | > 3000
12 | CCOC(=O)c1cc2c3ccccc3n(C)c2c(C)n1 [Compound 56, ethyl 1,9-dimethyl-β-carboline-3-carboxylate] | 110 | 490 | 50 | 140 | 60 | 141 to 142 °C | 130 | 100
13 | CCOC(=O)c1cc2c3ccccc3n(CC)c2c(C)n1 [Compound 57, ethyl 9-ethyl-1-methyl-β-carboline-3-carboxylate] | 60 | 880 | 50 | 160 | 60 | 96 to 98 °C | 70 | 80
14 | CCOC(=O)c1cc2c3ccccc3n(Cc3ccccc3)c2c(C)n1 [Compound 58, ethyl 9-benzyl-1-methyl-β-carboline-3-carboxylate] | 250 | 210 | 170 | 1390 | 1820 | 155 to 156 °C | 2080 | 2000
15 | CCOC(=O)c1cc2c3ccccc3n(CCCc3ccccc3)c2c(C)n1 [Compound 59, ethyl 9-phenylpropyl-1-methyl-β-carboline-3-carboxylate] | 40 | 180 | 20 | 110 | 30 | 101 to 102 °C | 40 | 40
16 | Cc1nc(C(=O)O)cc2c3ccccc3n(C)c12 [Compound 62, 1,9-dimethyl-β-carboline-3-carboxylic acid] | 1110 | 1500 | 440 | 2350 | 630 | 262 to 264 °C | 640 | 1380
17 | CCn1c2ccccc2c2cc(C(=O)O)nc(C)c21 [Compound 63, 9-ethyl-1-methyl-β-carboline-3-carboxylic acid] | 970 | 1820 | 590 | 2330 | 710 | 243 to 245 °C | 1660 | 2800
18 | Cc1nc(C(=O)O)cc2c3ccccc3n(CCCc3ccccc3)c12 [Compound 65, 9-phenylpropyl-1-methyl-β-carboline-3-carboxylic acid] | 220 | 560 | 50 | 210 | 110 | 186 to 188 °C | 270 | 140
19 | CCCc1nc(C(=O)OCC)cc2c3ccccc3n(C)c12 [Compound 68, ethyl 1-propyl-9-methyl-β-carboline-3-carboxylate] | 1360 | 460 | 60 | 140 | 80 | 108 to 109 °C | 110 | 100
20 | CCCc1nc(C(=O)OCC)cc2c3ccccc3n(CC)c12 [Compound 69, ethyl 1-propyl-9-ethyl-β-carboline-3-carboxylate] | 90 | 330 | 100 | 710 | 100 | 86 to 87 °C | 230 | 110
